The values that follow come from US5786137A, “Method for assaying components in an enzyme-protein substrate system” (Research Foundation of State University of New York, priority 1996, dated 1998).

The test system of test [1] is plasmin (binding to and degradation of FITC-fibrinogen). In words: Plasmin-mediated fibrinogenolysis assay: fluorescence dequenching of FITC-fibrinogen. The class given is biochemical. On the procedure: To illustrate plasmin-mediated fibrinogenolysis into degradation products, 10 nM of plasmin was mixed for about 5 seconds in the reaction buffer containing 250 nM FITC-fibrinogen. […] The action of plasmin on FITC-fibrinogen produced an immediate large increase in fluorescence intensity (dequenching) in a plasmin-dependent manner (FIG. 4). The detection limit has been found under routine conditions to be at least 10 picomolar plasmin.
In that competition, some plasmin was able to bind fibrinogen as indicated by the initial rate of dequenching.

Test [2] deals with fibrinogen (FITC-fibrinogen polymerized by thrombin). To be noted: 1 U/ml thrombin.
Protocol: Fibrinogen was labeled with FITC using a 0.1M sodium bicarbonate buffer. After stopping the reaction with hydroxylamine (0.15M final concentration), the FITC-fibrinogen was dialyzed extensively before storage. The buffer for the polymerization reaction comprised either 0.1M NaCl, 0.05M Tris-HCl, 5 mM CaCl2 ("buffer 1") or 0.3M NaCl, 0.05M Tris-HC1, 5 mM CaCl2 ("buffer 2"). Cuvettes were incubated with 10 μM bovine serum albumin for 30 minutes to minimize adsorption of substrate to the cuvette walls.
In a series of reactions to produce fibrinogen polymerization into fibrin fibers, thrombin (final concentrations ranging from 0.1 U/ml, 0.25 U/ml, 0.5 U/ml and 1 U/ml) was mixed for about 5 seconds in either buffer 1 or buffer 2 containing a dilute FITC-fibrinogen (<40 nM) solution. Polymerization was monitored by exciting the reaction mixture with blue light (488 nm) and monitoring the fluorescence emission at 515 nm using a fluorimeter.

For `NCCCCCC(=O)O` [ε-amino caproic acid], the “progression of fibrinogenolysis (cessation of dequenching)” value in test [1] (addition of 10 mM ε-amino caproic acid during fibrinogenolysis) is reported as “immediately inhibited”. For the same molecule, in test [1] (excess ε-amino caproic acid added after plasmin-mediated fibrinogenolysis was initiated (FIG. 8)), the inhibition of dequenching result was “dose-dependent inhibition”. For the same molecule, the dequenching rate result in test [1] (plasmin preincubated with 10 mM ε-amino caproic acid before addition of fluorescent-labeled fibrinogen (FIG. 7)) is “greatly reduced”.

As for Gly-Pro-Arg-Pro [GPRP], the thrombin-induced quenching prevented result in test [2] (100 μM GPRP added before polymerization) was “Over 80%”. For the same molecule, the “rate and extent of quenching associated with polymerization” value in test [2] (0.1, 10 and 100 μM GPRP) is “reduced in a dose-dependent manner”.
